# Measured values published in US20250144067A1, “PERSONALIZED STARVATION THERAPY FOR CANCER” (Faeth Therapeutics, Inc., priority 2021, published 2025).
# Like-named read-outs stand apart in the source and are kept apart here.
# Experiments:
# [1] = tested on: NCI-H292 lung cancer cells; assay: FDA drug screening, complete media vs cholesterol-free media without statin (TABLE 1); format: cell-based, human
# [2] = tested on: NCI-H292 lung cancer cells; assay: FDA drug screening, complete media vs cholesterol-free media with simvastatin (TABLE 2); format: cell-based, human
# [3] = NCI-H292 cells, cholesterol-free media without statin
# [4] = complete vs cholesterol-free media, greater than 0 enhanced anti-cancer activity, about 0 neutral, below 0 antagonists
# [5] = NCI-H292 cells, FDA library drug in cholesterol-free media with simvastatin 0.04 μM
# [6] = NCI-H292 cells, FDA library drug in complete media
# [7] = complete media vs cholesterol-free media + simvastatin (0.04 μM), >0 enhanced anti-cancer activity, about 0 neutral, <0 antagonist
# [8] = Complete minus Cholesterol-free, greater than 0 enhanced anti-cancer activity, about 0 neutral, below 0 antagonists
# [9] = NCI-H292 cells in cholesterol-free media without statin
# [10] = NCI-H292 cells in complete media
# [11] = Complete minus Cholesterol-free, >0 enhanced anti-cancer activity, about 0 neutral, <0 antagonist
# [12] = NCI-H292 cells, cholesterol-free media without statin, FDA drug library screen
# [13] = NCI-H292 cells, complete media, FDA drug library screen
# [14] = NCI-H292 cells, cholesterol-free media with simvastatin 0.04 μM, cell growth value in FDA drug screen
# [15] = NCI-H292 cells, complete media, cell growth value in FDA drug screen
# [16] = complete media minus cholesterol-free media + simvastatin, >0 enhanced anti-cancer activity, about 0 neutral, <0 antagonist
# [17] = Complete minus Cholesterol-free, […]
# [18] = NCI-H292 cells, cholesterol-free media with simvastatin 0.04 μM, FDA drug library screen (TABLE 2)
# [19] = NCI-H292 cells, complete media, FDA drug library screen (TABLE 2)
# [20] = complete media minus cholesterol-free media + simvastatin (0.04 μM), […]
# [21] = NCI-H292 cells, FDA drug library screen, complete media
# [22] = NCI-H292 cells, FDA drug library screen, cholesterol-free media with simvastatin 0.04 μM
compound,measurement,setting,value
Cc1c(C)c2c(c(C)c1O)CC[C@@](C)(CCC[C@H](C)CCC[C@H](C)CCCC(C)C)O2 [α-Vitamin E],Cholesterol-free,[1]; [3],1.5
same,Complete,"[1]; NCI-H292 cells, complete media",1.082
same,Difference,[1]; [4],−0.42
same,Cholesterol-free media + simvastatin (0.04 μM),[2]; [5],1.493
same,Complete Media,[2]; [6],0.9076
same,Difference,[2]; [7],−0.59
CC1=C(/C=C/C(C)=C/C=C/C(C)=C/C=C/C=C(C)/C=C/C=C(C)/C=C/C2=C(C)CCCC2(C)C)C(C)(C)CCC1 [β-Carotene],Difference,[1]; [8],−0.67
same,Cholesterol-free,[1]; [9],1.322
same,Complete,[1]; [10],0.6506
same,Cholesterol-free media + simvastatin (0.04 μM),[2]; [5],0.923
same,Complete Media,[2]; [6],0.6081
same,Difference,[2]; [7],−0.31
C=C1CCC2CC1C2(C)C (stereo not drawn) [β-Pinene],Difference,[1]; [11],−0.30
same,Cholesterol-free,[1]; [3],0.968
same,Complete,"[1]; NCI-H292 cells, complete media",0.6726
same,Cholesterol-free media + simvastatin (0.04 μM),"[2]; NCI-H292 cells, drug in cholesterol-free media with simvastatin 0.04 μM",1.724
same,Complete Media,"[2]; NCI-H292 cells, drug in complete media",1.464
same,Difference,[2]; [7],−0.26
(+)-Catechin hydrate,Difference,[1]; [11],0.05
same,Difference,"[2]; complete media minus cholesterol-free media + simvastatin (0.04 μM), >0 enhanced anti-cancer activity, about 0 neutral, <0 antagonist",−0.05
(S)-Flurbiprofen,Difference,[1]; [8],−0.56
same,Cholesterol-free,[1]; [9],1.504
same,Complete,[1]; [10],0.9454
same,Cholesterol-free media + simvastatin (0.04 μM),[2]; [5],1.832
same,Difference,[2]; [7],−0.79
(S)-Timolol (Maleate),Difference,[1]; [11],−0.04
same,Cholesterol-free,[1]; [12],1.235
same,Complete,[1]; [13],1.191
same,Cholesterol-free media + simvastatin (0.04 μM),[2]; [14],1.237
same,Complete Media,[2]; [15],1.285
same,Difference,[2]; [16],0.05
(−)-Huperzine A,Difference,[1]; [17],0.00
same,Cholesterol-free,[1]; [12],1.621
same,Complete,[1]; [13],1.617
same,Cholesterol-free media + simvastatin (0.04 μM),[2]; [18],1.198
same,Complete Media,[2]; [19],1.208
same,Difference,[2]; [20],0.01
(−)-Limonene,Cholesterol-free,[1]; [12],1.299
same,Complete,[1]; [13],1.515
same,Difference,"[1]; complete vs cholesterol-free media, >0 enhanced anti-cancer activity, about 0 neutral, <0 antagonist",0.22
same,Complete Media,[2]; [21],1.422
same,Difference,[2]; [16],0.38
(−)-Sparteine (sulfate pentahydrate),Cholesterol-free,[1]; [3],1.28
same,Complete,"[1]; NCI-H292 cells, complete media",0.8579
same,Difference,"[1]; complete vs cholesterol-free media, […]",−0.42
same,Cholesterol-free media + simvastatin (0.04 μM),"[2]; NCI-H292 cells, cholesterol-free media with simvastatin 0.04 μM, […]",0.83
same,Complete Media,"[2]; NCI-H292 cells, complete media, […]",0.9345
same,Difference,"[2]; complete media minus cholesterol-free media + simvastatin, […]",0.10
Abemaciclib (methanesulfonate),Difference,[1]; [11],−0.03
same,Cholesterol-free,[1]; [12],0.6853
same,Complete,[1]; [13],0.6534
same,Cholesterol-free media + simvastatin (0.04 μM),[2]; [5],0.9262
same,Complete Media,[2]; [6],0.6131
same,Difference,[2]; [7],−0.31
Acetylspiramycin,Difference,[1]; [17],−0.20
same,Cholesterol-free,[1]; [3],1.42
same,Complete,"[1]; NCI-H292 cells, complete media",1.224
same,Cholesterol-free media + simvastatin (0.04 μM),[2]; [22],1.237
same,Complete Media,[2]; [21],1.1
same,Difference,"[2]; complete media vs cholesterol-free media + simvastatin (0.04 μM), […]",−0.14
Adenine (hemisulfate),Cholesterol-free,[1],1.657
same,Complete,[1],0.9172
same,Difference,[1],−0.74
same,Cholesterol-free media + simvastatin (0.04 μM),[2],1.503
same,Complete Media,[2],1.604
same,Difference,[2],0.10
Afatinib (dimaleate),Difference,[1]; [11],0.03
same,Cholesterol-free,[1]; [12],0.07869
same,Complete,[1]; [13],0.1056
same,Cholesterol-free media + simvastatin (0.04 μM),[2]; [22],0.4722
same,Complete Media,[2]; [21],0.3193
same,Difference,[2]; [7],−0.15
Alarelin (Acetate),Difference,[1]; [17],−0.71
same,Cholesterol-free,[1]; [9],2.133
same,Complete,[1]; [10],1.426
same,Cholesterol-free media + simvastatin (0.04 μM),[2]; [18],0.8515
same,Complete Media,[2]; [19],0.85
same,Difference,[2]; [20],0.00
Alimemazine hemitartrate,Difference,[1]; [11],0.05
same,Cholesterol-free,[1]; [12],1.186
same,Complete,[1]; [13],1.239
same,Cholesterol-free media + simvastatin (0.04 μM),[2]; [22],0.9971
same,Complete Media,[2]; [21],1.335
same,Difference,[2]; [16],0.34
Aliskiren (hemifumarate),Cholesterol-free,[1]; [3],1.354
same,Complete,"[1]; NCI-H292 cells, complete media",0.9547
same,Difference,[1]; [4],−0.40
same,Cholesterol-free media + simvastatin (0.04 μM),[2]; [14],0.7275
same,Complete Media,[2]; [15],0.8337
same,Difference,[2]; [16],0.11
